According to a compilation of properties of binary mixtures (doi:10.1016/j.tca.2014.09.015):

Experiment: xn = mol fraction of the nth substance listed
Conditions: 101 kPa

Row | Compound | viscosity (303.15 K, x1 = 1) [mPa·s] | viscosity (313.15 K, x1 = 1) [mPa·s] | viscosity (298.15 K, x2 = 0.2761) [mPa·s] | viscosity (298.15 K, x2 = 0.8745) [mPa·s] | viscosity (303.15 K, x2 = 0.5594) [mPa·s] | viscosity (303.15 K, x2 = 0.8745) [mPa·s] | viscosity (308.15 K, x2 = 0.5594) [mPa·s] | viscosity (323.15 K, x2 = 0.7786) [mPa·s] | viscosity (328.15 K, x2 = 0) [mPa·s] | viscosity (328.15 K, x2 = 0.7786) [mPa·s] | viscosity (338.15 K, x2 = 0.2761) [mPa·s] | viscosity (343.15 K, x2 = 0.2761) [mPa·s]
1 | O + CCOS(=O)(=O)[O-].CC[N+]1(C)CCOCC1 | 0.81 | 0.68 |  |  |  |  |  |  |  |  |  | 
2 | CCOS(=O)(=O)[O-].CC[N+]1(C)CCOCC1 + O |  |  | 690 | 7.7 | 94 | 6.5 | 72 | 8.8 | 780 | 7.6 | 86 | 69
